# Measurements taken from US20110052730A1, “Leaves Extract of Panax sp., a Process of Making the Same and Uses Thereof” (UNIGEN, INC., priority 2008, published 2011).
# Experiment: Physicochemical properties of ginsenosides (soluble in)
row,SMILES,Soluble in
1,CC(C)=CC/C=C(/C)C1CCC2(C)C1[C@H](O)CC1[C@@]3(C)CCC(OC4OC(CO)C(O)C(O)C4OC4OC(CO)C(O)C(O)C4O)C(C)(C)C3CC[C@]12C (some centres unmarked) [Rg5],Alcohol
2,C=C(CCC=C(C)C)C1CCC2(C)C1[C@H](O)CC1[C@@]3(C)CCC(OC4OC(CO)C(O)C(O)C4OC4OC(CO)C(O)C(O)C4O)C(C)(C)C3CC[C@]12C (some centres unmarked) [Rk1],Alcohol
